Source: US7259232B1, “Preferred segments of neural thread protein” (Nymox Pharmaceutical Corporation, priority 2000, dated 2007)

Legend:
NTP [1] = assay: Affinity purification of NTP from AD patient urine on NTP-3 agarose column, activity by 7C Gold strip (Example 2); type: binding, human; conditions: pH 2 eluate, gel bands assayed with 7C Gold, activity only in 35-45 kD band
Protocol: Preparation of the Urine Sample Containing NTP for Testing: The biological source of NTP used was the urine of a patient (BOU1) diagnosed with AD. Before application to the column material, the biological sample was processed according to the following protocol for processing of urine for AD testing: • 1. The urine was tested with an Ames Multistix™ (Bayer, Ind.). […] The urine was centrifuged at 3000×g for 15 minutes to remove cellular debris. • 3. The urine was filtered using a syringe through a 0.22 μm cellulose acetate filter, and the filtrate was brought to 0.05% azide. • 4. The resultant aliquot was placed in the top reservoir of an Amicon Centricon® YM-10 Millipore, and centrifuged at 3000×g for one hour. • 5. […] Protein Concentration: The protein concentration in the eluate was 108 μg, as determined by Coomassie Blue staining (BioRad, Hercules, Calif.). […] Protein concentration was 145 μg, as determined by Bicinchoninic Acid Kit (Cat. # 23223, BioRad). Absorbance corrected for the buffer at 280 nm was 390, indicating 390 μg of protein. The larger protein amount obtained with absorbance measurement is likely a result of the presence of a large amount of aromatic amino acids in NTP, which can cause overestimation of protein using this measurement technique. […]

NTP [2] = assay: NTP immunoreactivity of Harlil peptides conjugated to rabbit IgG (Example 1); type: binding; conditions: peptides conjugated to maleimide activated Rabbit IgG
Description: The following Harlil sequences were synthesized (Synpep, Dublin Calif.) and conjugated to maleimide activated Rabbit IgG (Jackson Immunoresearch, West Grove Pa.) and assessed for their NTP immunoreactivity. […] (SEQ ID NOS 4-11, respectively, in order of appearance)
Conjugation to carrier proteins was through a cysteine. Thus, peptides NTP-1 and NTP-2 produced mixed conjugate results because there is more than one cysteine residue. Therefore, for peptides NTP-5 and NTP-6, the secondary cysteine was blocked with ACM.

rabbit IgG = assay: Precipitation of rabbit immunoglobulin by Harlil peptide (Example 3); conditions: start 3.4 mg RGG + 1 mg NTP-3, pH 7, dialyzed overnight
Protocol: The purpose of this example was to show the self-aggregation ability of a Harlil peptide. The Harlil peptide NTP-3 forms disulfide bonds (because of the cysteine residue) and dimerizes at neutral pH. Since the dimerized peptide can bind two immunoglobulins, it can cause precipitation.
1 mg of the Harlil peptide NTP-3 in 1 mL of dimethylsulfoxide (DMSO) was added to 3.4 mg of rabbit IgG (Jackson Immunoresearch, West Grove, Pa.) at pH 7. The mixture was allowed to dialyze over night, and a clear white precipitate was observed the next morning. The precipitate was removed by centrifugation and the protein concentration of the supernatant was determined by absorbance at 280 nm using a Perkin Elmer spectrophotometer model Lambda 3B. Precipitation of immunoglobulin is prevented at a low pH, e.g., pH of 3.5 or less 3.5.

[3] = test system: NTP3-RGG coated microtiter plate; assay: Microtiter plate assay: inhibition of conjugate binding to Harlil peptide coated plate (Example 5); conditions: monomer (unconjugated) peptide; peroxidase conjugated rabbit IgG; FIG. 2
Protocol: Preparation of Microtiter Plate: The Harlil peptide/immunoglobulin complex NTP3-RGG, in a ratio of 30:1 and prepared as in Example 4, was coated on an Immulon 4 microtiter plate (Dynex, Chantilly, Va.) at a concentration of 0.5 μg/well.
Standards: Recombinant NTP in TBS (described in de la Monte et al., J. of Neuropath. Exp. Neurol., 55:1038-1050 (1996)). 0.01% azide (Nymox Pharm. Corp., Lot 4-7-98), was serially diluted into TBS. 100 μl of each dilution was incubated at pH 3.5 for one hour. The dilutions were then washed for fifteen minutes in TBS, 0.1% albumin, and 0.05% Tween 80. This was followed by 3 washes in TBS and 0.05% Tween 80. Microtiter Plate Assay: 100 μl of 1:8000 dilution of peroxidase conjugated rabbit IgG (Jackson Immunoresearch, West Grove, Pa.) was then added and allowed to react for 30 minutes. The microtiter plate was washed twice with TBS and 0.05% Tween 80, followed by the addition of 150 μl of […] (TMB) (Serex Inc., Maywood, N.J.). The mixture was then incubated for 10 min. and stopped with 50 μl of 2 N HCl. Absorbance was read in a SLT 340 ATTC spectrophotometer.

NTP [4] = assay: Protein G column pass-through of NTP positive and negative samples (Example 7); type: binding; conditions: NTP positive and negative samples passed through Protein G column; NTP not significantly reduced
Description: Protein G binds antibody through the Fc region. […] Specifically, since Harlil peptides recognize Harlil peptides, Harlil peptides recognize the Fc region of antibody, and Protein G recognizes the Fc region of antibody, this experiment determined whether Protein G recognizes NTP.
Both an NTP positive and an NTP negative sample were passed through a Protein G column.

Sequence of NTP (as listed by the source): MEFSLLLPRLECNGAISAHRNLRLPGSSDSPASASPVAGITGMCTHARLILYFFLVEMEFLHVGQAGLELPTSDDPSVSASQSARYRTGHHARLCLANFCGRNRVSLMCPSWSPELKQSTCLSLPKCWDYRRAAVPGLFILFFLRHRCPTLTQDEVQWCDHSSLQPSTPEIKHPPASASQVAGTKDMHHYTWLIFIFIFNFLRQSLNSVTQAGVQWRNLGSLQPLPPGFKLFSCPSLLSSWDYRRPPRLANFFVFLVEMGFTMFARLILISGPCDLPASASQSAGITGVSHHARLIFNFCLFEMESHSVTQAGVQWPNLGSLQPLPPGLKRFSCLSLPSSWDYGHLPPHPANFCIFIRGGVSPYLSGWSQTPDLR

C A R Y R T G H H A R L M (CARYRTGHHARLM) [NTP-3]
binding of NTP by NTP-3 affinity column (NTP [1]): selectively bound the NTP protein
NTP immunoreactivity (NTP [2]): good reactivity
% Protein Precipitated (rabbit IgG): 39%
inhibition of conjugate binding to the plate [3]: inhibits the binding of conjugate to the plate

B1: Protein G: Protein G, binds antibody through the Fc region; used as column (protein)
chain: TYKLILNGKTLKGETTTEAVDAATAEKVFKQYANDNGVDGEWTYDDATKTFTVTEKPEVIDASELTPAVTTYKLVINGKTLKGETTTKAVDAETAEKAFKQYANDNGVDGVWTYDDATKTFTVTE
binding of Protein G to NTP (NTP [4]): does not bind to NTP
